One molecule from PMC4067310, “From Pan-Reactive KV7 Channel Opener to Subtype Selective Opener/Inhibitor by Addition of a Methyl Group” (PLoS ONE, 2014) can be followed below.

Structures are written as SMILES.

One test concerns the target T1, KV7.4-L305V (Homo sapiens, UniProt P56696, L305V).
T1 construct: expressed in transfected cells; host or cells: Xenopus laevis oocytes injected with cRNA (pGEM-HE vector)
T1 sequence (P56696 1-695 L305V): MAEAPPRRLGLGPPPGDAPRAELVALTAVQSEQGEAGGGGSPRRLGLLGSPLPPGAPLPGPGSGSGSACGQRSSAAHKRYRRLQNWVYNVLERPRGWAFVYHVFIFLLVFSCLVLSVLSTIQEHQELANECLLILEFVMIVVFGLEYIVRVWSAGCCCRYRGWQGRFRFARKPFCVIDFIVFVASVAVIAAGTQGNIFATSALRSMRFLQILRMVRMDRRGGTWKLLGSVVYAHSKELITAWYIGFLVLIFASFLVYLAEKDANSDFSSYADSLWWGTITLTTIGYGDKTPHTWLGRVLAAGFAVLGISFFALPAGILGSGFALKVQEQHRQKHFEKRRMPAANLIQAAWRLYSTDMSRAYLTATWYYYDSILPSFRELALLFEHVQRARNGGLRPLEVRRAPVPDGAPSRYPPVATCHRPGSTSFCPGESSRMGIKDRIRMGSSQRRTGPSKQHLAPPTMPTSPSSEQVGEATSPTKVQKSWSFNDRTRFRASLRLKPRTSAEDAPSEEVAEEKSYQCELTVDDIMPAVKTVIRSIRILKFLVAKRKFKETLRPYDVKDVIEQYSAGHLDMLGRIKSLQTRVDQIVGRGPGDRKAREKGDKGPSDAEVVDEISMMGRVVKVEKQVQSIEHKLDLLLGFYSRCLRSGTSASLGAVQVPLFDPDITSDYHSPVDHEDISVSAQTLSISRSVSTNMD
Kind of test: Two-electrode voltage-clamp of mutant KV7.4-L305V in Xenopus laevis oocytes. In kind it is cell-based. The following applies: 10 µM SMB-1, +50 mV, n = 6; read-out: current amplitude, % of control. As to the method: (§1) Point mutations were introduced using mutated oligonucleotide extension (PfuTurbo Polymerase, Stratagene, La Jolla, CA, USA) from a plasmid template harboring the cDNA of interest, digested with DpnI (Fermentas, St. Leon-Roth, Germany) and transformed into E.coli XL1 Blue cells. The construct was verified by complete DNA sequencing of the cDNA insert. cRNA was prepared from linearized human wild-type (WT) and mutant KV7 channels in the pGEM-HE vector using the T7 m-Message Machine kit (Ambion, Austin, TX, USA) according to the manufacturer's instructions.
(§2) Extraction of Xenopus laevis oocytes and injection of cRNA was performed as described previously. Oocytes were kept in Modified Barth's Saline (in mM: 88 NaCl, 1 KCl, 2.4 NaHCO3, 0.41 CaCl2, 0.82 MgSO4, 0.3 Ca(NO3)2, 15 HEPES, pH 7.4 supplemented with 100 U/mL penicillin and 100 µg/mL streptomycin) at 18°C, and currents were recorded after 2-7 days. […]
(§3) KV7 currents in Xenopus laevis oocytes were recorded using two-electrode voltage-clamp at room temperature in Ringer buffer (in mM: 115 NaCl, 2.5 KCl, 1.8 CaCl2, 0.1 MgCl2, 10 HEPES, pH 7.4) as described previously. Data was acquired using pCLAMP 10.2 software (Molecular Devices, CA, USA) and analyzed using pCLAMP 10.2 and GraphPad Prism 4.0 (GraphPad Software Inc., CA, USA). […]
On the technique in general: Two-electrode voltage clamp is typically applied to oocytes expressing channels or transporters.

The target in a further test is T2, KV7.2-L299V (Homo sapiens, UniProt O43526, L299V).
T2 construct: expressed in transfected cells; host or cells: Xenopus laevis oocytes injected with cRNA (pGEM-HE vector)
T2 sequence (O43526 whole entry L299V): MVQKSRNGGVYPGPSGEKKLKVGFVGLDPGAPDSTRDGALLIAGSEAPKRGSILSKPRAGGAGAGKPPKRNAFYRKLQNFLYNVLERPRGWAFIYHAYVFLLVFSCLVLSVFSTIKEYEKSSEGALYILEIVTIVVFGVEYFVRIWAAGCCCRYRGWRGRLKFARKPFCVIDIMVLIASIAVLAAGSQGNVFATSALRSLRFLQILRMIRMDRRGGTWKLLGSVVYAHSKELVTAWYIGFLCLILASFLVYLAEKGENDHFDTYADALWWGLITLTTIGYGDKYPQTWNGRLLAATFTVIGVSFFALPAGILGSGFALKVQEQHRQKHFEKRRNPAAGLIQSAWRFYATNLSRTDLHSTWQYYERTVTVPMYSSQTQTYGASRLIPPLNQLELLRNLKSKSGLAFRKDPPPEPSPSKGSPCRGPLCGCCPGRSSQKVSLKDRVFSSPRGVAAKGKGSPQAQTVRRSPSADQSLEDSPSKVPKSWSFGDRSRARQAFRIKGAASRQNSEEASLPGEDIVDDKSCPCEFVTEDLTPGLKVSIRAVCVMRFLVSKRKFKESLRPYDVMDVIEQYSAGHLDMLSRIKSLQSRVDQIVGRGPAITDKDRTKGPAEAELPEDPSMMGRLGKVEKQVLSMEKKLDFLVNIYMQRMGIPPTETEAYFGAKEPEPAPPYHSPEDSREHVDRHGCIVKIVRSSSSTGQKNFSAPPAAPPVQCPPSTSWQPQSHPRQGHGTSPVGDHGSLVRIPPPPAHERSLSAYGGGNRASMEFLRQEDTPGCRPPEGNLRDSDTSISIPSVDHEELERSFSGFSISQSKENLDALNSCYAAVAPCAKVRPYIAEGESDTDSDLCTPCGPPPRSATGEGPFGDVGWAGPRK
Kind of test: Two-electrode voltage-clamp of mutant KV7.2-L299V in Xenopus laevis oocytes. In kind it is cell-based. To be noted: 10 µM SMB-1, +50 mV, n = 4; read-out: current amplitude, % of control. As to the method:
as §1, §2, §3

For `C[C@@H](c1ccc2c(c1)N(CC1CC1)CCO2)N(C)C(=O)/C=C/c1ccccc1F` [SMB-1, (E)-N-[(S)-1-(4-Cyclopropylmethyl-3,4-dihydro-2H-1,4-benzoxazin-6-yl)-ethyl]-3-(2-fluoro-phenyl)-N-methyl-acrylamide], the remaining activity at 10 µM on KV7.4-L305V came out at 101 ± 10.3%; at KV7.2-L299V it was 69.3 ± 5.6%.
